Assay: Drug release from drug-containing disulfide-bond cross-linked hyaluronic acid hydrogel into phosphate buffer solution
Type: physicochemical
Conditions: 37° C., 100 rpm; for Cumulative release percentage of the drug: hydrogel 10 mg/ml hyaluronic acid, degree of mercapto-modification 3.97%
Experimental: In the preparation process of the disulfide-bond cross-linked hyaluronic acid hydrogel of Example 6 (having a concentration of hyaluronic acid of 10 mg/ml and a degree of mercapto-modification of 3.97%), 0.1-10 mg cortical hormones (e.g. Beclomethasone, Beclomethasone dipropionate, Budesonide, Dexamethasone, Prednisolone, and Prednisone) were added respectively to make the cortical hormones uniformly dispersed in the prepared cross-linked hydrogel.
10 ml phosphate buffer solution was added to 0.2 ml of the above drug-containing cross-linked hydrogel placed into a 15 ml plastic centrifugal tube. Then centrifugal tube was placed in a shaker (37° C., 100 rpm), and the ultraviolet absorption of the drugs in the supernatant was measured at regular intervals. The measurement wavelengths were as follows: Beclomethasone 246 nm, Beclomethasone dipropionate 240 nm, Budesonide 248 nm, Dexamethasone 242 nm, Prednisolone 248 nm, and Prednisone 244 nm.

Release behaviour from the hydrogel (in words) | Cumulative release percentage of the drug (7 days) [%] | Cumulative release percentage of the drug (14 days) [%] | Cumulative release percentage of the drug (21 days) [%] | Structure (SMILES)
release was rarely detected | <1 | <1 | <1 | CCC(=O)OCC(=O)[C@@]1(OC(=O)CC)[C@@H](C)C[C@H]2[C@@H]3CCC4=CC(=O)C=C[C@]4(C)[C@@]3(Cl)[C@@H](O)C[C@@]21C [Beclomethasone dipropionate]
 | 68 | 87 | 94 | C[C@H]1C[C@H]2[C@@H]3CCC4=CC(=O)C=C[C@]4(C)[C@@]3(Cl)[C@@H](O)C[C@]2(C)[C@@]1(O)C(=O)CO [Beclomethasone]
released basically completely in 7 days | 95 | 100 | 100 | C[C@]12C=CC(=O)C=C1CC[C@@H]1[C@@H]2[C@@H](O)C[C@@]2(C)[C@H]1CC[C@]2(O)C(=O)CO [Prednisolone]
 | 86 | 99 | 100 | C[C@]12C=CC(=O)C=C1CC[C@@H]1[C@@H]2C(=O)C[C@@]2(C)[C@H]1CC[C@]2(O)C(=O)CO [Prednisone]

— patent US10064889B2, “Mercapto-modified biocompatible macromolecule derivatives with low degree of mercapto-modification and the cross-linked materials and uses thereof” (Bioregen Biomedical (Changzhou) Co., Ltd., priority 2010, dated 2018)
